Our source for the inhibition and IC50 values is US10501449B2 (priority 2018, dated 2019).

Where two headings read alike, the source gives them in different places.

One series has as its target hERG channels (Homo sapiens (Human), UniProt Q12809). Nature of the series: hERG Manual Patch Clamp Assay. In kind it is cell-based. Particulars: human, HEK 293 cells stably expressing hERG channels, pH 7.4, 1 uM, read-out: hERG EP % Inh @ 1 uM.
Series [1] addresses T1, hROMK (human Kir1.1) (Homo sapiens (Human), UniProt P48048). As to the kind of experiment: cell-based. Particulars: CHO T-Rex hROMK stable cell line; thallium flux; 10-point concentration response curve; read-out: Human ROMK Th Flux IC50.
For series [2], the target named is T1, hROMK (human Kir1.1). Nature of the series: cell-based. Particulars: whole-cell manual patch clamp, CHO T-Rex hROMK stable cell line, voltage step to -120 mV, Ba2+-subtracted hROMK current; read-out: ROMK EP IC50. The class given is cell-based.
Experimental: ROMK Manual Patch Clamp Assay
Cell culture conditions: Cells were maintained in conditions similar to those for Thallium flux assay. hROMK channel expression was induced by adding 0.6 μg/ml of Doxycycline 16-24 hrs prior to the experiments. On the day of experiment, the cells were dissociated using Versene, resuspended in growth media and plated onto coverslips 15 minutes prior to use.
Electrophysiology: The coverslip plated with cells was placed in the experiment chamber perfused with bath solution composed of (in mM): 135 NaCl, 5 KCl, 2 CaCl2, 1 MgCl2, 10 HEPES, 5 Glucose (pH 7.4). Patch pipettes with resistance between 2-5 Megaohms, when filled with a solution containing (in mM): 135 KCl, 1 EGTA, 1 MgCl2, 10 HEPES, 2 Na2ATP (pH 7.3), were used to form gigaseals. The cells were voltage clamped at −75 mV in whole-cell configuration using an Axopatch 200b or Multiclamp 700b (Molecular Devices) amplifier controlled by pClamp Software (Molecular Devices). The current was recorded by applying a voltage step to −120 mV every 10 seconds. […] At the end of the experiment, the cells were perfused with bath solution containing 2 mM Ba^2+ to isolate the contribution of hROMK current.
Data analysis: Raw current values (5 traces each for control, different compound concentration and Ba^2+ treatment groups) were exported from Clampfit into Microsoft Excel where the current remaining after application of Ba^2+ was subtracted from raw current to obtain hROMK specific current.

T1 sequence (P48048 whole entry): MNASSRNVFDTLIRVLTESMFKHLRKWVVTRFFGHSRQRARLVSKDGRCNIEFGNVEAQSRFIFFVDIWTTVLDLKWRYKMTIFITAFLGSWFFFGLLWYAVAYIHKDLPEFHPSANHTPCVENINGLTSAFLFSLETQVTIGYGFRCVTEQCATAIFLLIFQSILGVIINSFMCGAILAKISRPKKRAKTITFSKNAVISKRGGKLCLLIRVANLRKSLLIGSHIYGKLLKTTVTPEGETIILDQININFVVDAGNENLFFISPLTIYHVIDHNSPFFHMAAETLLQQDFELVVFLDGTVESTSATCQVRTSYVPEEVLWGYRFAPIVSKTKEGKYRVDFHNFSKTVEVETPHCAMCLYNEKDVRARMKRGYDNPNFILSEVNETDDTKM
Sequence of hERG channels (Q12809 whole entry): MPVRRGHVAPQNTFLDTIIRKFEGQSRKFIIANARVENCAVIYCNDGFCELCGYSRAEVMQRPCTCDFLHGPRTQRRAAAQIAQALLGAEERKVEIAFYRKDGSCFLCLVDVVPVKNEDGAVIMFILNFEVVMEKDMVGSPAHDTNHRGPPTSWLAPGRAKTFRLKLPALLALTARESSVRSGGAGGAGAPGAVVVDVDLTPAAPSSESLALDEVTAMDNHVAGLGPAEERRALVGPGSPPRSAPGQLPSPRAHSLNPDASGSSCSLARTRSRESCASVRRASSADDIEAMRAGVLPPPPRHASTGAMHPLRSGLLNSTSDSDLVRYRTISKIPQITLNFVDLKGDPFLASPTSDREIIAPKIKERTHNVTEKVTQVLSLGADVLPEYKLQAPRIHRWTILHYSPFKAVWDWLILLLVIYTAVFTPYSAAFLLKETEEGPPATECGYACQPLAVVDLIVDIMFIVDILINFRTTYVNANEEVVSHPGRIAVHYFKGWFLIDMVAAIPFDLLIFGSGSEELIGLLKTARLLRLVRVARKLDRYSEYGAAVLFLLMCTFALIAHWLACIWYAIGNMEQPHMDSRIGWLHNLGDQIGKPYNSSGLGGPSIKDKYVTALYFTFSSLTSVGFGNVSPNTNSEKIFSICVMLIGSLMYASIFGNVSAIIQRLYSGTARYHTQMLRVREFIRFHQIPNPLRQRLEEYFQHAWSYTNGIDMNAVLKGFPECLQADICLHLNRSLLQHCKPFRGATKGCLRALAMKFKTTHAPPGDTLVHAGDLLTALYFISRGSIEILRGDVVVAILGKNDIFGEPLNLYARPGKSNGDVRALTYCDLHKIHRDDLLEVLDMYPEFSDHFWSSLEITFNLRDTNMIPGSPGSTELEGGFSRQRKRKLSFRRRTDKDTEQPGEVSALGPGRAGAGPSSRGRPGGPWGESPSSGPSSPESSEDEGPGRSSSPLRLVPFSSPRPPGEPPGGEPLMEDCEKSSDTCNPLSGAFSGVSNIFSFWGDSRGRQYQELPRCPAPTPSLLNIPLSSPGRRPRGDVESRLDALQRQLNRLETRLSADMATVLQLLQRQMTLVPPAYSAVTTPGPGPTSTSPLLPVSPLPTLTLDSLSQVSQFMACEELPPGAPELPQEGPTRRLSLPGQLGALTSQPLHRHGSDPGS
Experimental for hERG channels: hERG electrophysiology assay: The experimental compounds were assessed for hERG activity on HEK 293 cells stably expressing hERG channels using patch clamp technique. Coverslips plated with hERG expressing cells were placed in the experimental chamber and were perfused with a solution composed of (in mM): 140 NaCl, 4 KCl, 1.8 CaCl2, 1 MgCl2, 10 Glucose, 10 HEPES (pH 7.4, NaOH) at room temperature. Borosilicate patch pipettes had tip resistances of 2-4 Mohms when filled with an internal solution containing: 130 KCl, 1 MgCl2, 1 CaCl2, 10 EGTA, 10 HEPES, 5 ATP-K2 (pH 7.2, KOH). The cells were clamped at −80 mV in whole cell configuration using an Axopatch 200B (Axon instruments, Union City, Calif.) patch clamp amplifier controlled by pClamp (Axon instruments) software. Upon formation of a gigaseal, the following voltage protocol was repeatedly (0.05 Hz) applied to record tail currents: depolarization step from −80 mV to +20 mV for 2 seconds followed by a hyperpolarization step to −65 mV (3 seconds) to elicit tail currents. Compounds were applied after stabilization of tail current. First, tail currents were recorded in presence of extracellular solution alone (control) and subsequently, in extracellular solution containing increasing compound concentrations. Each compound concentration was applied for 2-5 minutes. The percentage inhibition at each concentration was calculated as reduction in peak tail current with respect to the peak tail current recorded in the presence of control solution. Data analysis was performed in a custom made template. The percent inhibitions at different concentrations were plotted to obtain a concentration response curve, which was subsequently fitted with a four parameter equation to calculate hERG IC50 value.

On to `Cc1cc(-n2ncc(C(C)N3CCN[C@H](c4ccc5c(c4C)COC5=O)C3)n2)ncc1C#N` (single isomer, unassigned) [Example 121-I], for which the inhibition at 1 µM on hERG channels is 10%. The IC50 at hROMK (human Kir1.1) [1] was found to be 31 nM; at hROMK (human Kir1.1) [2], 740 nM.
The corresponding values for `Cc1cc(-n2nc(C)c(CN3CC(c4ccc5c(c4C)COC5=O)NC(C)(C)C3)n2)ncc1C#N` (single isomer, unassigned) [Example 175-I, 6-(4-((3,3-dimethyl-5-(4-methyl-1-oxo-1,3-dihydroisobenzofuran-5-yl)piperazin-1-yl)methyl)-5-methyl-2H-1,2,3-triazol-2-yl)-4-methylnicotinonitrile] are 15%, 31 nM and 17 nM.
Taken in the same sequence, the figures for `COc1cc(-n2ncc(CN3CC(c4ccc5c(c4C)COC5=O)NC(C)(C)C3)n2)ncc1C#N` (single isomer, unassigned) [Example 190-I, 6-(4-((3,3-dimethyl-5-(4-methyl-1-oxo-1,3-dihydroisobenzofuran-5-yl)piperazin-1-yl)methyl)-2H-1,2,3-triazol-2-yl)-4-methoxynicotinonitrile] were 9.1%, 17 nM and 13 nM.
For `Cc1cc(-n2cc(CN3CC(c4ccc5c(c4C)COC5=O)NCC3C)cn2)ncc1C#N` (single isomer, unassigned) [Example 244-II, 4-methyl-6-(4-((2-methyl-5-(4-methyl-1-oxo-1,3-dihydroisobenzofuran-5-yl)piperazin-1-yl)methyl)-1H-pyrazol-1-yl)nicotinonitrile], the IC50 came out at 17 nM on hROMK (human Kir1.1) [1] and 22 nM at hROMK (human Kir1.1) [2].
`Cc1cc(-c2nnc(CN3CC(c4ccc5c(c4C)COC5=O)NC(C)(C)C3)o2)ncc1C#N` (single isomer, unassigned) [Example 267-I, 6-(5-((3,3-dimethyl-5-(4-methyl-1-oxo-1,3-dihydroisobenzofuran-5-yl)piperazin-1-yl)methyl)-1,3,4-oxadiazol-2-yl)-4-methylnicotinonitrile]: the inhibition at 1 µM at hERG channels came to 9.9%. Also, the IC50 at hROMK (human Kir1.1) [1] was determined as 16 nM; on hROMK (human Kir1.1) [2], 17 nM.
The corresponding values for `Cc1cc(-n2cc(CN3CCO[C@H](c4ccc5c(c4C)COC5=O)C3)cn2)ncc1C#N` [Example 1-I, (R)-4-methyl-6-(4-((2-(4-methyl-1-oxo-1,3-dihydroisobenzofuran-5-yl)morpholino)methyl)-1H-pyrazol-1-yl)nicotinonitrile] are 26%, 14 nM and 11 nM.
Taken in the same sequence, the figures for `Cc1c([C@@H]2CN(Cc3ccc(-c4ccc5oc(=O)n(C)c5c4)nc3)CCO2)ccc2c1COC2=O` [Example 3-I, (R)-3-methyl-5-(5-((2-(4-methyl-1-oxo-1,3-dihydroisobenzofuran-5-yl)morpholino)methyl)pyridin-2-yl)benzo[d]oxazol-2(3H)-one] were 26%, 210 nM and 44 nM.
For `COc1cc(-n2cnc(CN3CCN[C@H](c4ccc5c(c4C)COC5=O)C3)c2)ncc1C#N` [Example 14-I, (R)-4-methoxy-6-(4-((3-(4-methyl-1-oxo-1,3-dihydroisobenzofuran-5-yl)piperazin-1-yl)methyl)-1H-imidazol-1-yl)nicotinonitrile], at hERG channels, the inhibition at 1 µM worked out at 1.7%. Further, the IC50 on hROMK (human Kir1.1) [1] was found to be 36 nM; at hROMK (human Kir1.1) [2], 51 nM.
As to `Cc1cn(-c2ccc(CN3CCO[C@H](c4ccc5c(c4C)COC5=O)C3)cn2)cn1` [Example 16-I, (R)-4-methyl-5-(4-((6-(4-methyl-1H-imidazol-1-yl)pyridin-3-yl)methyl)morpholin-2-yl)isobenzofuran-1(3H)-one], the inhibition at 1 µM on hERG channels was found to be 7.3%. The IC50 at hROMK (human Kir1.1) [1] was found to be 33 nM; on hROMK (human Kir1.1) [2], 11 nM.
As to `Cc1cc(-n2cc(CN3CCN[C@H](c4ccc5c(c4C)COC5=O)C3)nn2)ncc1C#N` [Example 23-I, (R)-4-methyl-6-(4-((3-(4-methyl-1-oxo-1,3-dihydroisobenzofuran-5-yl)piperazin-1-yl)methyl)-1H-1,2,3-triazol-1-yl)nicotinonitrile], the inhibition at 1 µM on hERG channels was 12%. Also, the values for the IC50 at hROMK (human Kir1.1) [1] and at hROMK (human Kir1.1) [2] were 30 nM and 4.9 nM, respectively.
For the compound `COc1cc(-n2cc(CN3CCN[C@H](c4ccc5c(c4C)COC5=O)C3)cn2)ncc1C#N` [Example 59-I, (R)-4-methoxy-6-(4-((3-(4-methyl-1-oxo-1,3-dihydroisobenzofuran-5-yl)piperazin-1-yl)methyl)-1H-pyrazol-1-yl) nicotinonitrile], at hERG channels, the inhibition at 1 µM is 15%. In addition, the IC50 at hROMK (human Kir1.1) [1] was determined as 20 nM; on hROMK (human Kir1.1) [2], 4.8 nM.
Consider `Cc1c([C@@H]2CN(Cc3cn(-c4ccc5oc(=O)n(C)c5c4)nn3)CCN2)ccc2c1COC2=O` [Example 61-I, (R)-3-methyl-5-(4-((3-(4-methyl-1-oxo-1,3-dihydroisobenzofuran-5-yl)piperazin-1-yl)methyl)-1H-1,2,3-triazol-1-yl)benzo[d]oxazol-2 (3H)-one], for which, on hROMK (human Kir1.1) [2], the IC50 came out at 40 nM.
As to `Cc1c([C@@H]2CN(Cc3ccc(-n4cnc(C#N)c4)nc3)CCN2)ccc2c1COC2=O` [Example 65-I, (R)-1-(5-((3-(4-methyl-1-oxo-1,3-dihydroiso-benzofuran-5-yl)piper-azin-1-yl)methyl)pyri-din-2-yl)-1H-imidazole-4-carbonitrile], on hERG channels, the inhibition at 1 µM stood at 21%. Also, the IC50 came out at 14 nM on hROMK (human Kir1.1) [1] and 9.8 nM on hROMK (human Kir1.1) [2].
The corresponding values for `Cc1cn(-c2ccc(CN3CCN[C@H](c4ccc5c(c4C)COC5=O)C3)cn2)cn1` [Example 66-I, (R)-4-methyl-5-(4-((6-(4-methyl-1H-imidazol-1-yl)pyridin-3-yl)methyl)piperazin-2-yl)iso-benzofuran-1(3H)-one] are 0%, 33 nM and 4.7 nM.
The corresponding values for `Cc1ncn(-c2ccc(CN3CCN[C@H](c4ccc5c(c4C)COC5=O)C3)cn2)n1` [Example 67-I, (R)-4-methyl-5-(4-((6-(3-methyl-1H-1,2,4-tri-azol-1-yl)pyridin-3-yl)methyl)piperazin-2-yl) isobenzofuran-1(3H)-one] are 7.1%, 110 nM and 29 nM.
For `COc1cc(-n2cnc(CN3C[C@@H](c4ccc5c(c4C)COC5=O)N[C@@H](C)C3)c2)ncc1C#N` [Example 97-I, 4-methoxy-6-(4-(((3S,5R)-3-methyl-5-(4-methyl-1-oxo-1,3-dihydroisobenzofur-an-5-yl)piperazin-1-yl)methyl)-1H-imidazol-1-yl)nicotinonitrile], the IC50 came to 28 nM on hROMK (human Kir1.1) [1] and 43 nM at hROMK (human Kir1.1) [2].
For `Cc1cc(-n2cc(CN3C[C@@H](c4ccc5c(c4C)COC5=O)N[C@@H](C)C3)nn2)ncc1C#N` [Example 106-I, 4-methyl-6-(4-(((3S,5R)-3-methyl-5-(4-methyl-1-oxo-1,3-dihydroisobenzofur-an-5-yl)piperazin-1-yl)methyl)-1H-1,2,3-triazol-1-yl)nicotinonitrile], on hERG channels, the inhibition at 1 µM came out at 0.98%. Further, on hROMK (human Kir1.1) [2], the IC50 amounted to 10 nM.
Take `Cc1c([C@@H]2CN(Cc3cnn(-c4ccc5oc(=O)n(C)c5c4)n3)C[C@H](CO)N2)ccc2c1COC2=O` [Example 109-I, 5-(4-(((3R,5R)-3-(hydroxymethyl)-5-(4-methyl-1-oxo-1,3-dihydroisobenzofur-an-5-yl)piperazin-1-yl)methyl)-2H-1,2,3-triazol-2-yl)-3-methylbenzo[d]oxa-zol-2(3H)-one]: the inhibition at 1 µM on hERG channels turned out to be 3.6%. Besides, the IC50 at hROMK (human Kir1.1) [2] amounted to 54 nM.
Take `Cc1cc(-n2cc(CN3C[C@@H](c4ccc5c(c4C)COC5=O)N[C@@H](C)C3)n(C)c2=O)ccn1` [Example 266-I, 3-methyl-4-(((3S,5R)-3-methyl-5-(4-methyl-1-oxo-1,3-dihydroisobenzofuran-5-yl)piperazin-1-yl)methyl)-1-(2-methylpyridin-4-yl)-1,3-dihydro-2H-imidazol-2-one]: the inhibition at 1 µM on hERG channels came to 3.1%. Moreover, at hROMK (human Kir1.1) [1], the IC50 turned out to be 36 nM.
Regarding `COc1cc(-c2cc(CN3C[C@@H](c4ccc5c(c4C)COC5=O)N[C@@H](C)C3)on2)ncc1C#N` [Example 269-I, 4-methoxy-6-(5-(((3S,5R)-3-methyl-5-(4-methyl-1-oxo-1,3-dihydroisobenzofuran-5-yl)piperazin-1-yl)methyl)isoxazol-3-yl)nicotinonitrile], the inhibition at 1 µM on hERG channels came out at 9.5%. The IC50 on hROMK (human Kir1.1) [1] was 24 nM.
The corresponding values for `COc1cc(-n2nnc(CN3CC[C@@H](O)[C@H](c4ccc5c(c4C)COC5=O)C3)n2)ccc1C#N` [Example 272-I, 4-(5-(((3R,4R)-4-hydroxy-3-(4-methyl-1-oxo-1,3-dihydroisobenzofuran-5-yl)piperidin-1-yl)methyl)-2H-tetrazol-2-yl)-2-methoxybenzonitrile] are 5.2% and 65 nM.
Taken in the same sequence, the figures for `COc1cc(N2CC(CN3C[C@@H](c4ccc5c(c4C)COC5=O)N[C@@H](C)C3)N(C)C2=O)ncc1C#N` (stereo partly drawn) [Example 274-I, 4-methoxy-6-(3-methyl-4-(((3S,5R)-3-methyl-5-(4-methyl-1-oxo-1,3-dihydroisobenzofuran-5-yl)piperazin-1-yl)methyl)-2-oxoimidazolidin-1-yl)nicotinonitrile] were 43% and 58 nM.
In the case of `COc1cc(-n2cc(CN3C[C@@H](c4ccc5c(c4C)COC5=O)N[C@@H](C)C3)n(C)c2=O)ccn1` [Example 275-I, 1-(2-methoxypyridin-4-yl)-3-methyl-4-(((3S,5R)-3-methyl-5-(4-methyl-1-oxo-1,3-dihydroisobenzofuran-5-yl)piperazin-1-yl)methyl)-1,3-dihydro-2H-imidazol-2-one], the inhibition at 1 µM at hERG channels was 8.4%. For the same compound, the IC50 at hROMK (human Kir1.1) [1] is 42 nM.
